Data reported in patent US4370327A, “Cephalosporins and pharmaceutical compositions” (Boehringer Ingelheim GmbH, priority 1980, dated 1983).
≈ marks a conversion by molar mass, not a printed value.

What was measured:
[1] = system: Enterobacter cloaceae ATCC 13 047; assay: serial dilution test in the microtiter system, minimum inhibitory concentration; type: cell-based; details: Enterob. cloacae ATCC 13047, 37° C., 18 to 20 hours
Experimental: (§1) The tests were performed using the serial dilution test in the microtiter system. The effect of the text compounds on bacteriostasis was examined at the following concentrations: 128, 64, 32, 16, 8, 4, 2, 1, 0.5, 0.25, 0.12, 0.06, 0.03, and 0.015 μg/ml. The nutrient medium consisted of 10 gm of peptone, 8 g of meat extract oxoid, 3 g of sodium chloride, and 2 g of sec. sodium phosphate diluted with distilled water to […] (pH 7.2-7.4). The age of the primary cultures was approximately 20 hours. The standardization of the bacteria suspension was effected using a photometer according to the method of Eppendorf (test tube .phi. 14 mm, filter 546 nm), using for comparison a barium sulfate suspension formed by the addition of 3.0 ml of 1% barium chloride solution to 97 ml of 1% sulfuric acid. After the standardization, the test pathogens were diluted further in a ratio of 1:1500 with a common salt solution.
(§2) Sixteen milligrams of a particular test compound were put into a 10 ml measuring flask, and the flask was subsequently filled to the mark with solvent. Further dilutions in the series were made with distilled water or the appropriate solvent.
(§3) The cavities of the microtiter plates were filled sequentially with 0.2 ml of nutrient medium, 0.01 ml of the appropriate test compound solution, and then 0.01 ml of the standardized bacteria suspension. The bacteria were incubated at 37° C. for from 18 to 20 hours. Control tests using only the solvent were carried out simultaneously.
(§4) The measurement was carried out macroscopically to determine the minimum inhibitory concentration (the lowest, still bacteriostatically effective concentration).
(§5) The following test organisms were used:
(§6) Staphylococcus aureus SG 511, Escherichia coli ATCC 11 775, Pseudomonas aeruginosa Hamburgensis and Pseudomonas aeruginosa Walter, Serratia marcescens ATCC 13 880, Klebsiella pneumoniea ATCC 10 031 and BC 6, Proteus mirabilis BC 17, Proteus rettgeri BC 7, Enterobacter cloaceae ATCC 13 047, and E. coli R+TEM (β-lactamase carrier), and Klebsiella pneumoniae 1082 E (β-lactamase carrier).
(§7) Representative compounds of the compounds of Formula I were tested. Those representative compounds comprised sodium salts of compounds of Formula I wherein R, D, and Y had the meanings set forth in the following table: […]

[2] = system: Escherichia coli ATCC 11 775; assay: as above; type: cell-based; details: E. coli ATCC 11775, 37° C., 18 to 20 hours
Experimental: as §1, §2, §3, §4, §5, §6, §7

[3] = system: Klebsiella pneumoniae 1082 E (β-lactamase carrier); assay: as above; type: cell-based; details: Klebs. pneum. 1082 E, 37° C., 18 to 20 hours
Experimental: as §1, §2, §3, §4, §5, §6, §7

[4] = system: Proteus mirabilis BC 17; assay: as above; type: cell-based; details: BC17, Prot. mir. BC 17, 37° C., 18 to 20 hours
Experimental: as §1, §2, §3, §4, §5, §6, §7

[5] = system: Pseudomonas aeruginosa Hamburgensis; assay: as above; type: cell-based; details: Pseud. aeru Hbg., 37° C., 18 to 20 hours
Experimental: as §1, §2, §3, §4, §5, §6, §7

[6] = system: Pseudomonas aeruginosa Walter; assay: as above; type: cell-based; details: Pseud. aeru Walter, 37° C., 18 to 20 hours
Experimental: as §1, §2, §3, §4, §5, §6, §7

[7] = system: Serratia marcescens ATCC 13 880; assay: as above; type: cell-based; details: Serr. marcesc. ATCC 13880, 37° C., 18 to 20 hours
Experimental: as §1, §2, §3, §4, §5, §6, §7

[8] = system: Staphylococcus aureus SG 511; assay: as above; type: cell-based; details: SG511, St. aureus SG 511, 37° C., 18 to 20 hours
Experimental: as §1, §2, §3, §4, §5, §6, §7

[9] = system: Klebsiella pneumoniea ATCC 10 031; assay: as above; type: cell-based, Klebsiella pneumoniae; details: Klebs. pneum. ATCC 10031, 37° C., 18 to 20 hours
Experimental: as §1, §2, §3, §4, §5, §6, §7

[10] = system: Klebsiella pneumoniea BC 6; assay: as above; type: cell-based, Klebsiella pneumoniae; details: BC6, Klebs. pneum. BC 6, 37° C., 18 to 20 hours
Experimental: as §1, §2, §3, §4, §5, §6, §7

[11] = system: Prot. rettg. BC 17; assay: as above; type: cell-based, Proteus rettgeri; details: Providencia rettgeri, 37° C., 18 to 20 hours
Experimental: as §1, §2, §3, §4, §5, §6, §7

[12] = system: E. coli ATCC 11775; assay: in vivo test against experimental intraperitoneal infection in mice; set-up: species or system E. coli in female mice of the NMRI strain; details: Escherichia coli, ATCC11775, sc, 168 h; subcutaneous, one treatment 1 hour after i.p. infection, observation 7 days; read-out: ED50 (dose at which 50% of the animals survived)
Experimental: A number of the compounds according to the invention were tested in vivo against experimental infections in mice. E. coli ATCC 11775 was used as the pathogenic bacteria. An intraperitoneal infection was produced with 0.2 ml of a bacterial suspension (with 5% mucin), which corresponds to about 1.4×10^6 E. coli bacteria per mouse. Female mice of the NMRI strain were divided up into groups of 10 animals. Two groups were untreated, and the other groups were treated with various doses of the cephalosporins according to the invention, administered subcutaneously, to determine the ED50 (does at which 50% of the animals survived). One treatment was administered 1 hour after the infection.
In both cases, the observation period was 7 days.

MIC [1] [µg/mL] | MIC [2] [µg/mL] | MIC [4] [µg/mL] | MIC [5] [µg/mL] | MIC [6] [µg/mL] | MIC [7] [µg/mL] | MIC [8] [µg/mL] | MIC [9] [µg/mL] | MIC [10] [µg/mL] | MIC [11] [µg/mL] | SMILES | MIC [3] [µg/mL] | ED50 [12] [mg/kg]
0.25 (≈ 0.369 µM) | 0.06 (≈ 0.0885 µM) | 0.06 (≈ 0.0885 µM) | 32 (≈ 47.2 µM) | 32 (≈ 47.2 µM) | 0.25 (≈ 0.369 µM) | 1 (≈ 1.48 µM) | 0.12 (≈ 0.177 µM) | 0.06 (≈ 0.0885 µM) | 0.12 (≈ 0.177 µM) | CCCNc1ncc(NC(=O)NC(C(=O)N[C@@H]2C(=O)N3C(C(=O)O)=C(CSc4nnnn4C)CS[C@H]23)c2csc(N)n2)c(O)n1 (some centres unmarked) [B] | 16 (≈ 23.6 µM) | 
0.5 (≈ 0.721 µM) | 0.06 (≈ 0.0865 µM) | 0.06 (≈ 0.0865 µM) | 32 (≈ 46.1 µM) | 32 (≈ 46.1 µM) | 0.25 (≈ 0.36 µM) | 2 (≈ 2.88 µM) | 0.25 (≈ 0.36 µM) | 0.12 (≈ 0.173 µM) | 0.25 (≈ 0.36 µM) | Cn1nnnc1SCC1=C(C(=O)O)N2C(=O)[C@@H](NC(=O)C(NC(=O)Nc3cnc(NCCCO)nc3O)c3csc(N)n3)[C@H]2SC1 (some centres unmarked) [C] | 32 (≈ 46.1 µM) | 
> 128 | 4 (≈ 8.8 µM) | 4 (≈ 8.8 µM) | > 128 | > 128 | > 128 | 0.06 (≈ 0.132 µM) | 1 (≈ 2.2 µM) | 2 (≈ 4.4 µM) | > 128 | Cc1nnc(SCC2=C(C(=O)O)N3C(=O)[C@@H](NC(=O)Cn4cnnn4)[C@H]3SC2)s1 [Cefazoline, reference compound] | > 128 | 
0.5 (≈ 0.632 µM) | 0.06 (≈ 0.0759 µM) | 0.25 (≈ 0.316 µM) | 16 (≈ 20.2 µM) | 16 (≈ 20.2 µM) | 0.5 (≈ 0.632 µM) | 1 (≈ 1.26 µM) | 0.12 (≈ 0.152 µM) | 0.12 (≈ 0.152 µM) | 0.25 (≈ 0.316 µM) | Cn1nnnc1SCC1=C(C(=O)O)N2C(=O)[C@@H](NC(=O)C(NC(=O)Nc3cnc(Nc4ccc(S(N)(=O)=O)cc4)nc3O)c3csc(N)n3)[C@H]2SC1 (some centres unmarked) [F] | 64 (≈ 80.9 µM) | 

The next lines start with the molecule.

SMILES | MIC [1] [µg/mL] | MIC [2] [µg/mL] | MIC [4] [µg/mL] | MIC [5] [µg/mL] | MIC [6] [µg/mL] | MIC [7] [µg/mL] | MIC [8] [µg/mL] | MIC [9] [µg/mL] | MIC [10] [µg/mL] | MIC [11] [µg/mL] | MIC [3] [µg/mL] | ED50 [12] [mg/kg]
Cn1nnnc1SCC1=C(C(=O)O)N2C(=O)[C@@H](NC(=O)C(NC(=O)Nc3cnc(C4CC4)nc3O)c3csc(N)n3)[C@H]2SC1 (some centres unmarked) [A] | 0.5 (≈ 0.757 µM) | 0.03 (≈ 0.0454 µM) | 0.03 (≈ 0.0454 µM) | 32 (≈ 48.4 µM) | 32 (≈ 48.4 µM) | 0.25 (≈ 0.378 µM) | 1 (≈ 1.51 µM) | 0.03 (≈ 0.0454 µM) | 0.06 (≈ 0.0908 µM) | 0.12 (≈ 0.182 µM) | 32 (≈ 48.4 µM) | 0.5
CCN1CCN(C(=O)N[C@@H](C(=O)N[C@@H]2C(=O)N3C(C(=O)O)=C(CSc4nnnn4C)CS[C@H]23)c2ccc(O)cc2)C(=O)C1=O [Cefaperazone (T 1551), reference compound] |  |  |  |  |  |  |  |  |  |  |  | 3.1
CO/N=C(\C(=O)N[C@@H]1C(=O)N2C(C(=O)O)=C(COC(N)=O)CS[C@H]12)c1ccco1 [Cefuroxime, reference compound] | 32 (≈ 75.4 µM) | 8 (≈ 18.9 µM) | 0.5 (≈ 1.18 µM) | > 128 | > 128 | 8 (≈ 18.9 µM) | 1 (≈ 2.36 µM) | 2 (≈ 4.71 µM) | 4 (≈ 9.43 µM) | 2 (≈ 4.71 µM) |  | > 100
CC(=O)OCC1=C(C(=O)O)N2C(=O)[C@@H](NC(=O)C(NC(=O)Nc3cnc(Nc4ccc(S(N)(=O)=O)cc4)nc3O)c3csc(N)n3)[C@H]2SC1 (some centres unmarked) [Compound E] | 0.25 (≈ 0.34 µM) | 0.03 (≈ 0.0408 µM) | 0.12 (≈ 0.163 µM) | 16 (≈ 21.8 µM) | 8 (≈ 10.9 µM) | 0.12 (≈ 0.163 µM) | 0.5 (≈ 0.68 µM) | 0.06 (≈ 0.0817 µM) | 0.06 (≈ 0.0817 µM) | 0.12 (≈ 0.163 µM) | 32 (≈ 43.6 µM) | 0.1 to 0.3
Cn1nnnc1SCC1=C(C(=O)O)N2C(=O)[C@@H](NC(=O)C(NC(=O)Nc3cnc(NC4CCC(O)CC4)nc3O)c3csc(N)n3)[C@H]2SC1 (some centres unmarked) [D] | 0.25 (≈ 0.341 µM) | 0.06 (≈ 0.0818 µM) | 0.12 (≈ 0.164 µM) | 16 (≈ 21.8 µM) | 16 (≈ 21.8 µM) | 0.25 (≈ 0.341 µM) | 2 (≈ 2.73 µM) | 0.06 (≈ 0.0818 µM) | 0.06 (≈ 0.0818 µM) | 0.12 (≈ 0.164 µM) | 32 (≈ 43.6 µM) | < 0.3
Cn1nnnc1SCC1=C(C(=O)O)N2C(=O)[C@@H](NC(=O)C(NC(=O)Nc3cnc(NCc4ccc(O)cc4)nc3O)c3csc(N)n3)[C@H]2SC1 (some centres unmarked) [G] | 0.12 (≈ 0.162 µM) | 0.03 (≈ 0.0404 µM) | 0.03 (≈ 0.0404 µM) | 16 (≈ 21.6 µM) | 8 (≈ 10.8 µM) | 0.12 (≈ 0.162 µM) | 0.5 (≈ 0.674 µM) | 0.06 (≈ 0.0809 µM) | 0.03 (≈ 0.0404 µM) | 0.06 (≈ 0.0809 µM) | 16 (≈ 21.6 µM) | < 0.2
